Measurements from ChEMBL document CHEMBL1201862, “PubChem BioAssay data set” (2004).
Active and inactive are the calls of the source.

Experiments:
[1] = molecular target: T1, Voltage-gated N-type calcium channel alpha-1B subunit/Amyloid beta A4 precursor protein-binding family A member 1 (Homo sapiens, UniProt Q00975+Q02410); type: protein assay
[2] = molecular target: T1, Voltage-gated N-type calcium channel alpha-1B subunit/Amyloid beta A4 precursor protein-binding family A member 1; type: protein assay; remark: listed apart in the source
[3] = molecular target: T2, RNA-binding protein pos-1 (Caenorhabditis elegans, UniProt G5EF15); test: disruptors of C. elegans POS-1 RNA interaction – biochemical, fluorescence polarization, dose response (AID 1964);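 further: purified POS-1 fused to maltose binding protein made in E. coli; potency of compounds blocking POS-1 binding to fluorescent RNA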
T2 sequence (G5EF15 whole entry): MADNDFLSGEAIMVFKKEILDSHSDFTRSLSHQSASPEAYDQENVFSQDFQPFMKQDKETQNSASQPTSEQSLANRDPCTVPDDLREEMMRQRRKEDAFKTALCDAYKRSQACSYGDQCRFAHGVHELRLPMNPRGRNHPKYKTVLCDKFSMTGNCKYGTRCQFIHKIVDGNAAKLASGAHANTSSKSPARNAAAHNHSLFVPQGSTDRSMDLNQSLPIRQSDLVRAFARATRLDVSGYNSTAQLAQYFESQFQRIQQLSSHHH

[4] = molecular target: Induced myeloid leukemia cell differentiation protein Mcl-1 (Homo sapiens, UniProt Q07820); type: functional
Chain of Induced myeloid leukemia cell differentiation protein Mcl-1 (Q07820 whole entry): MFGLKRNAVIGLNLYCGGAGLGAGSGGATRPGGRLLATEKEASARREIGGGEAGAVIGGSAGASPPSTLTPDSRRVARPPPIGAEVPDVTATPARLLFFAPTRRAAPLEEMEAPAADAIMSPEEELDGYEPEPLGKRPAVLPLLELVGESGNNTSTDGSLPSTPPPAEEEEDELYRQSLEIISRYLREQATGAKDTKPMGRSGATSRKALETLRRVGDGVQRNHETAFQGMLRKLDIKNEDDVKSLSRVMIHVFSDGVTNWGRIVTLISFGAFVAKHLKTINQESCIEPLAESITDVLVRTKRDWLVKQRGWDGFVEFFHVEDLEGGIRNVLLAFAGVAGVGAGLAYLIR

[5] = molecular target: T3, Zinc finger protein mex-5 (Caenorhabditis elegans, UniProt Q9XUB2); test: potency of MEX-5 RNA-binding blockers – biochemical, C. elegans, fluorescence polarization, dose response (AID 1960)
T3 sequence (Q9XUB2 whole entry): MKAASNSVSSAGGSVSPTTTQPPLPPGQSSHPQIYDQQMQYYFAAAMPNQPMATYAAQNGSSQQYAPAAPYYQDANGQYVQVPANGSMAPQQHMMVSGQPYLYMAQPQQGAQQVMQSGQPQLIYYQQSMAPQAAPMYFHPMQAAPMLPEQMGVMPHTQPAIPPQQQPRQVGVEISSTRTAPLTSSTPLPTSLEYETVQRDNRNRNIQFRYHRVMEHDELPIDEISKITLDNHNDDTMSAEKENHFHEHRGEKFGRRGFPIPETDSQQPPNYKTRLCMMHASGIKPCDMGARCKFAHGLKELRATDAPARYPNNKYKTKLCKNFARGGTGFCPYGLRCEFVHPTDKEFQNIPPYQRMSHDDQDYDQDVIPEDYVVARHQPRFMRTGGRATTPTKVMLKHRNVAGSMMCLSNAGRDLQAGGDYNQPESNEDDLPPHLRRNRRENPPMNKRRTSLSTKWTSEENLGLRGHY

[6] = molecular target: T4, Ubiquitin-conjugating enzyme E2 N (Homo sapiens, UniProt P61088); type: functional;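 further: Dose-response confirmation in a TR-FRET assay detecting UBC13-driven polyubiquitin chain formation, inhibition measured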
T4 sequence (P61088 whole entry): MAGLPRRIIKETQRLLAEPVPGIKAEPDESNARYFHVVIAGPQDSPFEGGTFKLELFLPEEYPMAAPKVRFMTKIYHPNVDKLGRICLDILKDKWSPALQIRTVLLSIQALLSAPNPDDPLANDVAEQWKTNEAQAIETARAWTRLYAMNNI

[7] = molecular target: T5, Short transient receptor potential channel 4 (Mus musculus, UniProt Q9QUQ5); test: calcium entry via TRPC4 opening agents – cell-based, HEK293 TRPC4/mu-opioid, Fluo-4 calcium, dose response (AID 434937); type: functional
T5 sequence (Q9QUQ5 whole entry): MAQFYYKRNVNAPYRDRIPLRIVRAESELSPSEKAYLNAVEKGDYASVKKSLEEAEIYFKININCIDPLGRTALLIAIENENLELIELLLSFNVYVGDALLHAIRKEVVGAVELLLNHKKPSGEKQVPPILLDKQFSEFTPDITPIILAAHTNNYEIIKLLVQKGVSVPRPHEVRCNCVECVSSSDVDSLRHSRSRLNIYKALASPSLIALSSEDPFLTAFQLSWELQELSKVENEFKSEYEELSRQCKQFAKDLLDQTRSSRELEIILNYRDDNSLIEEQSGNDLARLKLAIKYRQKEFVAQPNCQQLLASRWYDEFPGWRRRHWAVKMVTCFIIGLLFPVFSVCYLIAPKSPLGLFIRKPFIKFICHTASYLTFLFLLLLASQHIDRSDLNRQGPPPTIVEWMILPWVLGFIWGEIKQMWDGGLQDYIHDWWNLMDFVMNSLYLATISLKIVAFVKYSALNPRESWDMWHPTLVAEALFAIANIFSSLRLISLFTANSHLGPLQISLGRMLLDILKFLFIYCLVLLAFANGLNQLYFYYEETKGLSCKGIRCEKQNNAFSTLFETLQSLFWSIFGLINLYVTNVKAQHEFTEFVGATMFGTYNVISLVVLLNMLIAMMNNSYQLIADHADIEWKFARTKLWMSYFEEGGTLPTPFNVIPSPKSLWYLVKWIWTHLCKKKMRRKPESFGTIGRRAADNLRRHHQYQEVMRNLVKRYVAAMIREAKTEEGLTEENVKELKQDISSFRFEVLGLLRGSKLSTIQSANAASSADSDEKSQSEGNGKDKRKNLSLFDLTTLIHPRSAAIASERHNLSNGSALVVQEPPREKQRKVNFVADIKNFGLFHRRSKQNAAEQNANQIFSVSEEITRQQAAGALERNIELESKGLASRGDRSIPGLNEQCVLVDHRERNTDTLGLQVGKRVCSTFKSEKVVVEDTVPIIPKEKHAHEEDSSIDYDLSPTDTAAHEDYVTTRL

[8] = microbe, parasite or virus in culture; type: functional; conditions: Mycobacterium tuberculosis
[9] = molecular target: T6, Replicative DNA helicase DnaB (Mycobacterium tuberculosis, UniProt P9WMR3); test: DnaB intein splicing inhibitors, dose response, biochemical, cell-free fluorescence (AID 449749); type: functional
T6 sequence (P9WMR3 whole entry): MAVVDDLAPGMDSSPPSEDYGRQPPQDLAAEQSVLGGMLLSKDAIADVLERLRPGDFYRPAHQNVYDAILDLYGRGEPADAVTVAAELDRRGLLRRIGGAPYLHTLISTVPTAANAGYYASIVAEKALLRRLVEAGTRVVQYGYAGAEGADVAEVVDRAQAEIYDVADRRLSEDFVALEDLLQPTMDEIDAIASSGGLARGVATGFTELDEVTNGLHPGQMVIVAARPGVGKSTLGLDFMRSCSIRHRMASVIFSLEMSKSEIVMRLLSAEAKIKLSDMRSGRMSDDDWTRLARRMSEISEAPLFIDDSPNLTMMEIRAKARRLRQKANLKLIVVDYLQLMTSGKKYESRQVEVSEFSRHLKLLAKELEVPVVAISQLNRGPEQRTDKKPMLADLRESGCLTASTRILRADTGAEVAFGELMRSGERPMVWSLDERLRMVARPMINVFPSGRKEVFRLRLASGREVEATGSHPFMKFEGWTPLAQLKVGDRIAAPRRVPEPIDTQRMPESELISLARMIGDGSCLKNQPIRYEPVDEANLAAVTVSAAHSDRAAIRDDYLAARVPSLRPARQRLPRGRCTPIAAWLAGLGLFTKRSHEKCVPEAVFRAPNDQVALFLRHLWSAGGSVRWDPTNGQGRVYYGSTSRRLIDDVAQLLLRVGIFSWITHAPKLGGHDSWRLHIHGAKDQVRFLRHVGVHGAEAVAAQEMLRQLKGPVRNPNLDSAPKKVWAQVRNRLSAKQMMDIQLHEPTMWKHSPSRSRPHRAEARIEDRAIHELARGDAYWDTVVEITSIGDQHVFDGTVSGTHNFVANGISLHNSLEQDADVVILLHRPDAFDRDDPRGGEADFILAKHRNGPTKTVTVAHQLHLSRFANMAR

Streptokinase A = molecular target: T7, Streptokinase A (Streptococcus pyogenes serotype M1, UniProt P10520); test: viability-normalized secreted streptokinase activity reduction – plasminogen activation absorbance, OD405, dose response (AID 1914); type: functional, Streptococcus pyogenes M1 GAS;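 further: secreted streptokinase activity via plasminogen activation per viability signal from cell pellet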
T7 sequence (P10520 whole entry): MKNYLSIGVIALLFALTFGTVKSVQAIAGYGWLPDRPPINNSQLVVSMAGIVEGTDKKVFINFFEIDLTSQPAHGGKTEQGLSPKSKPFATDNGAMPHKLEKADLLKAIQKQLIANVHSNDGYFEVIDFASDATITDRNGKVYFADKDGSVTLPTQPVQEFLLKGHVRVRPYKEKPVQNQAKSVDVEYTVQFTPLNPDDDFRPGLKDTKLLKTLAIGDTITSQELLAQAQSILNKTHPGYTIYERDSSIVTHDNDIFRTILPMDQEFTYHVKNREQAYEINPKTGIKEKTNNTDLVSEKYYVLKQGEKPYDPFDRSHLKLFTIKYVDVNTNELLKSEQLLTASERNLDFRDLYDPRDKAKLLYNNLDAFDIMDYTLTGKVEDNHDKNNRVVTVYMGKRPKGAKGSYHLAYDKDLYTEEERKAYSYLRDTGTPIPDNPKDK

[10] = system: Streptococcus sp. 'group A'; test: Streptococcus pyogenes SK(-)GAS viability under kanamycin – luminescence, BacTiterGlo, confirmation, counter-screen for streptokinase expression inhibitor project, dose response (AID 1900); type: functional, organism-based
Protein RecA = molecular target: T8, Protein RecA (Mycobacterium tuberculosis, UniProt P9WHJ3); test: Fluorescence Cell-Free Homogeneous Dose Retest to Identify Inhibitors of RecA-Intein Splicing Activity. [Related pubchem assays (depositor defined):AID2097, AID2223, AID489010, AID492950]; type: functional
T8 sequence (P9WHJ3 whole entry): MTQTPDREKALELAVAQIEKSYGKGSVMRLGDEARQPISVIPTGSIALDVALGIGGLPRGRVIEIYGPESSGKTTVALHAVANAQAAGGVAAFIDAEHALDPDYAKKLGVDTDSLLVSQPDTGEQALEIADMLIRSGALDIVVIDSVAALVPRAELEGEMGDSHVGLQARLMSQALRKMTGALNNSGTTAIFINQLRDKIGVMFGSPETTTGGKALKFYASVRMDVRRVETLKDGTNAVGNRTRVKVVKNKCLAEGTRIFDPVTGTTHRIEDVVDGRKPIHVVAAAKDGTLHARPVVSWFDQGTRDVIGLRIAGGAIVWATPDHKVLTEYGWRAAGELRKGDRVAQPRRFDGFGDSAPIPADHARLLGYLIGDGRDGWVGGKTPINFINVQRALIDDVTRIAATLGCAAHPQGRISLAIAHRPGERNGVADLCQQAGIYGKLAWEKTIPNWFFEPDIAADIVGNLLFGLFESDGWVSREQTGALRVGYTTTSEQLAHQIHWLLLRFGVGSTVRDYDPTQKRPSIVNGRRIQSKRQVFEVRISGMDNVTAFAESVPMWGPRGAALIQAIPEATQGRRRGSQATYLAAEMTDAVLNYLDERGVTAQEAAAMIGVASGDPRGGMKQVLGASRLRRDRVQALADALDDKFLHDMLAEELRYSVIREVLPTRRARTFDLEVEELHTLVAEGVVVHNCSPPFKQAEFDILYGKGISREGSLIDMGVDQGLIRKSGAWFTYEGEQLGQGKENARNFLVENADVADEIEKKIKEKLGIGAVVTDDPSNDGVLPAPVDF

Streptococcus = test: GAS UMAA2166 growth inhibition – luminescence, BacTiterGlo, counter-screen for streptokinase expression inhibitor project, dose response (AID 1915); type: functional, organism-based;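 further: potency for reduction of bacterial viability or growth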
H9c2 = test: cells; type: functional, cell-based; conditions: Rattus norvegicus, H9c2, Myocardium;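 further: confirmatory concentration-response retest of ultra-high-throughput screening hits for modulation of myocardial damage; cell death induced by hydrogen peroxide oxidative stress; compound pretreatment for 60 min then peroxide exposure for 2 h; potency is for protecting the cells against peroxide damage rather than for killing them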
[11] = viability of HCT116 lacking mutant beta-catenin – cell-based, human colon tumor, dose response (AID 1045); type: functional;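 further: HCT116 colon tumor cells with beta catenin knocked out; cells exposed to compound for 60 hours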
[12] = viability of PTEN-deleted HCT116 cells – cell-based, HCT116 PTEN knockout, dose response (AID 1047); type: functional;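 further: HCT116 colon tumor cells with PTEN knocked out; cells exposed to compound for 60 hours before readout; potency for loss of cell viability measured by luminescence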
Large T antigen = Large T antigen (Simian virus 40, UniProt P03070); type: functional, Betapolyomavirus macacae;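 further: Confirmatory-stage PubChem screen for compounds that inhibit SV40 T antigen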
Chain of Large T antigen (P03070 whole entry): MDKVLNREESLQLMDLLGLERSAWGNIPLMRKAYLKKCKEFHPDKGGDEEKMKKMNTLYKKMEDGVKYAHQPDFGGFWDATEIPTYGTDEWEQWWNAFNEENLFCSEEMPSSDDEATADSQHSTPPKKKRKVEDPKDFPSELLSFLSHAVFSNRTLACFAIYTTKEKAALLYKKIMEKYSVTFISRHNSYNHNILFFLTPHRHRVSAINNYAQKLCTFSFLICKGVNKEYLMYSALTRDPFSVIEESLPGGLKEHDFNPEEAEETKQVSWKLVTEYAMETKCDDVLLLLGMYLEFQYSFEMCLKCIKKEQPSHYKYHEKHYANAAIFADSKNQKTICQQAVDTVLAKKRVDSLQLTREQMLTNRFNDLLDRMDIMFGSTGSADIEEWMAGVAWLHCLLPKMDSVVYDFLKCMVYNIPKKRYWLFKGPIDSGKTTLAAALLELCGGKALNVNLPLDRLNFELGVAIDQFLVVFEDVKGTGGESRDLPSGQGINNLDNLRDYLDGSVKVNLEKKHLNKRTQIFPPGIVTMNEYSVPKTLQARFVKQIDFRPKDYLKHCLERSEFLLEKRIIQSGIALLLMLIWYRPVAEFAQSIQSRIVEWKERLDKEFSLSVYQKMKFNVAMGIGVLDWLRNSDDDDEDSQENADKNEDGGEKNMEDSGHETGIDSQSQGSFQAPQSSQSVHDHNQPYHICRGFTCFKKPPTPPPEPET

T1 sequence (Q00975 whole entry): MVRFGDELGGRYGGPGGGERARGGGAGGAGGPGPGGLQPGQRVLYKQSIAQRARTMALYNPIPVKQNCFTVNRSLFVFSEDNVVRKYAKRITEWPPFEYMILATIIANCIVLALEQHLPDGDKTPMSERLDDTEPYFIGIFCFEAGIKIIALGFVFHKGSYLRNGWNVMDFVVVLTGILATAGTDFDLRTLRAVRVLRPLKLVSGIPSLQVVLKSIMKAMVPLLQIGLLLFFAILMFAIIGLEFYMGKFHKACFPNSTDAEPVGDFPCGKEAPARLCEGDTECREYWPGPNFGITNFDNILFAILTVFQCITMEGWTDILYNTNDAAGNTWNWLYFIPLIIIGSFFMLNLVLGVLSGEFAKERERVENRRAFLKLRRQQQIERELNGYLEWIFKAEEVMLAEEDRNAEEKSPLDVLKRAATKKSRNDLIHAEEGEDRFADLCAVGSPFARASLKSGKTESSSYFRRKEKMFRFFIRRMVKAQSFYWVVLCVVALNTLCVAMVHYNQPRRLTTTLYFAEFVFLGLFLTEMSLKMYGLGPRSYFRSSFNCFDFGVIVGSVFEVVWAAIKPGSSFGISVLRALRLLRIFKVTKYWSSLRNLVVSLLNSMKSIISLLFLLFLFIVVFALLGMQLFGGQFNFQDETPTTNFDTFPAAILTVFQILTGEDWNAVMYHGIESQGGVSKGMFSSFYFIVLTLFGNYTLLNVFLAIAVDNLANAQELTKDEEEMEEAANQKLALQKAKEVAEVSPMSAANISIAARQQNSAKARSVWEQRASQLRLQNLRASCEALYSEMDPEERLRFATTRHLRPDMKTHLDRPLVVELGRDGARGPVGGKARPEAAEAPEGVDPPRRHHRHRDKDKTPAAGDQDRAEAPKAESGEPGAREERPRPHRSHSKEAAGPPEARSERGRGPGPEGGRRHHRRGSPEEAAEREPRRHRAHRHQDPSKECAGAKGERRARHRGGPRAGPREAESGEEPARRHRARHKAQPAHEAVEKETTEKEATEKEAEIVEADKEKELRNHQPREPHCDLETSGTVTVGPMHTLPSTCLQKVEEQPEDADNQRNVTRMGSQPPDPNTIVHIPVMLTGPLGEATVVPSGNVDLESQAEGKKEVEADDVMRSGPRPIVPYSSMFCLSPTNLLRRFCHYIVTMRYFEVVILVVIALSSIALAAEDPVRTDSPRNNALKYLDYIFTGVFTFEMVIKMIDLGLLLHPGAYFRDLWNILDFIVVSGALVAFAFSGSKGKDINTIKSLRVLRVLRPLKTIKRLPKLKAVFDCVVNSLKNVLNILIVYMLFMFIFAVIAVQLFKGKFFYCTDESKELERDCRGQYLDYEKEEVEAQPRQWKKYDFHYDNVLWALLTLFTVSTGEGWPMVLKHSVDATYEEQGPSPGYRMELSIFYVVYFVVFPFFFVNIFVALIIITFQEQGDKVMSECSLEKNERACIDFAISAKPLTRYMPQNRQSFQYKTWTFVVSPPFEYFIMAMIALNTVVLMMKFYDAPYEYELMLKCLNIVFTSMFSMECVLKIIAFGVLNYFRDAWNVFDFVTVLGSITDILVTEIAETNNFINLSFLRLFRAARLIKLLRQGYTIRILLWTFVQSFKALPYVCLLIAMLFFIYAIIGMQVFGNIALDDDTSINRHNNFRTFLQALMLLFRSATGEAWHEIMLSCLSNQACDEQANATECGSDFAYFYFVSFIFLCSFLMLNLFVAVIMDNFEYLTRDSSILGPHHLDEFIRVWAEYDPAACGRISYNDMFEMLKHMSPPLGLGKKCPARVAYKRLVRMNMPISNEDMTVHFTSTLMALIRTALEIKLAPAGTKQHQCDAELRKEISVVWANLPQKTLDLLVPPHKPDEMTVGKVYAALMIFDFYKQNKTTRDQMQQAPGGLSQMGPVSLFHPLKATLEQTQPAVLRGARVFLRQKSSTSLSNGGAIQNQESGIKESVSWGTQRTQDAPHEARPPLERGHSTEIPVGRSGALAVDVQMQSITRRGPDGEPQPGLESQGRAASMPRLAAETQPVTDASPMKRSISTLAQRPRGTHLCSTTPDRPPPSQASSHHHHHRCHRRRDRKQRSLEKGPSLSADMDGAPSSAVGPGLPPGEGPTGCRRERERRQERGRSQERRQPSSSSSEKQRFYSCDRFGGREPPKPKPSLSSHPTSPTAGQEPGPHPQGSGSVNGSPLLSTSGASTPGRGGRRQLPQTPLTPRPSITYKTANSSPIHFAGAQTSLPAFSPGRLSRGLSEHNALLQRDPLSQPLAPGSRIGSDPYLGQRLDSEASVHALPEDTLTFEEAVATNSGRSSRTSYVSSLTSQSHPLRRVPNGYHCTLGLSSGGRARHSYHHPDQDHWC
T1 sequence (Q02410 whole entry): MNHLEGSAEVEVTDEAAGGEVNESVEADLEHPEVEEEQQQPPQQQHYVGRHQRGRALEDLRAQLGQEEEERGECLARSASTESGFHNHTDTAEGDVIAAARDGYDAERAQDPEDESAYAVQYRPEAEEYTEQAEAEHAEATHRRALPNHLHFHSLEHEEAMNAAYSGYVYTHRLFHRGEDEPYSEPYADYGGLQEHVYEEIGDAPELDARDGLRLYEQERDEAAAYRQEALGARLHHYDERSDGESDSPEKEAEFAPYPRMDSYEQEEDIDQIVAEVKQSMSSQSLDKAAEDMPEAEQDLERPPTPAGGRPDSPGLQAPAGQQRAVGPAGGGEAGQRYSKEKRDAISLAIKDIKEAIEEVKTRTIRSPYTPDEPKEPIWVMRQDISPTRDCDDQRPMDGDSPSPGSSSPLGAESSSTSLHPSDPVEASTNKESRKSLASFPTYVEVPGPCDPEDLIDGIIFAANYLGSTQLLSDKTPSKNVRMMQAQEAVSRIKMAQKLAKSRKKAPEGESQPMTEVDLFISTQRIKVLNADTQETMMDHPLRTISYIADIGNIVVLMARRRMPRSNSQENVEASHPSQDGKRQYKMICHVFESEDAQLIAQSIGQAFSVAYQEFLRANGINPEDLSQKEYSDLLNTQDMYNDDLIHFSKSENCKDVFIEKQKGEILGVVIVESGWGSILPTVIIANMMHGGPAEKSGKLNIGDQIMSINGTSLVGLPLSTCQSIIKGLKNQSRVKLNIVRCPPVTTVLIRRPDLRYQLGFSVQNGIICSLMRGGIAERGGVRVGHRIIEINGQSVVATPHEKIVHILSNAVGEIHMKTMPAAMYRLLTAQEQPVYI

N#Cc1c(O)nsc1Nc1ccccc1Cl
IC50 [1]: 4.76 µM (active)
IC50 [2]: > 50 µM (inactive)

COc1ccc(NC(=O)c2cc3ccc4c5ccccc5[nH]c4c3cc2O)cc1
IC50 [1]: 9.55 µM (active)
IC50 [2]: > 50 µM (inactive)

C1=CC2c3ccccc3NC(c3ccncc3)C2C1 (centres undefined)
EC50 [3]: > 300 µM (not active)
IC50 [4]: 2.42 µM (active)
EC50 [5]: 56.6 µM (inconclusive)

O=C(CCS(=O)(=O)c1ccccc1)Nc1ccc(-c2nc3ccccc3s2)cc1
IC50 [1]: 12.5 µM (active)
IC50 [2]: > 50 µM (inactive)

NC(=O)c1nsc(C(=O)N(c2cccc(F)c2)C(C(=O)NC2CCCC2)c2ccc(O)cc2)c1N (centres undefined)
IC50 [6]: > 20 µM (inactive)

O=C(CC(=O)c1c(F)cccc1Cl)c1ccccc1O
EC50 [7]: 10.6 µM (active)

COc1ccccc1N1C(=O)C2ON(c3ccccc3)C(c3ccc(N(C)C)cc3)C2C1=O (centres undefined)
IC50 [4]: 9.03 µM (not active)

CN(C(=O)c1cccc(Nc2ccc(-c3ccc4c(c3)OCCO4)nn2)c1)C1CCCCC1
CC50 [8]: 28.4 µM (active)

CCOC(=O)C1=C(O)c2ccccc2C(=O)/C1=C\c1ccc(CC)cc1
IC50 [4]: 7.19 µM (active)
AC50 [9]: 4.44 µM (active)
EC50 (Streptokinase A): > 150 µM (not active)
EC50 [10]: 13 µM (active)
EC50 (Protein RecA): 8.86 µM (active)
EC50 (Streptococcus): 38.1 µM (active)

COc1cc(-c2ccc3oc(-c4ccsc4)cc(=O)c3c2)cc(OC)c1OC
CC50 [8]: 14.3 µM (active)
IC50 (H9c2): > 79 µM (inactive)

COc1ccc(OC)c(CCNC(=O)Cn2sc3nc(C)cc(C)c3c2=O)c1
IC50 [1]: 5.66 µM (active)
EC50 [11]: 16.7 µM (active)
EC50 [12]: 18.3 µM (active)
IC50 [2]: > 50 µM (inactive)
IC50 (Large T antigen): 22.1 µM (active)

CCN1C(=O)N/C(=C/c2ccc(C)o2)C1=O
IC50 [1]: 3.29 µM (active)
IC50 [2]: 22.6 µM (active)

Cn1c(=O)c2c(nc(CN3CCc4ccccc4C3)n2Cc2ccccc2F)n(C)c1=O
EC50 [7]: 5.31 µM (active)

COc1ccc(N/C=C/C(=O)c2sc(-c3ccccc3)nc2C)cc1
CC50 [8]: > 40 µM (active)

CC(C)CC(C(=O)NC1CCCC1)N(Cc1ccc2c(c1)OCO2)C(=O)c1snc(C(N)=O)c1N (centres undefined)
IC50 [6]: > 20 µM (inactive)

O=C(Cc1cccc(F)c1F)NC1CCCN(Cc2ccc(Cl)cc2)C1 (centres undefined)
EC50 [7]: 0.944 µM (active)

Cc1ccc(NS(=O)(=O)c2ccc(C(=O)N3CC(C)CC(C)C3)cc2)cc1 (centres undefined)
EC50 [7]: 4.22 µM (active)

CCN1C(=O)CC(c2ccccc2)N(C2CCCC2)c2nc(Nc3ccc(C(=O)NC4CCN(C)CC4)cc3OC)ncc21 (centres undefined)
IC50 [6]: > 20 µM (inactive)
